Measurements reported in patent publication US20070128217A1 (priority 2003, published 2007).

How the values were obtained:
[1] = test system: rabbit serum obtained by immunizing a rabbit with the SARS-CoV strain Frankfurt 1; type: binding; set-up: Binding of a rabbit serum to linear peptides / Binding of a rabbit serum to looped peptides / Rabbit serum linear peptides / Rabbit serum looped peptides / Binding of a rabbit serum to linear peptides of protein N of SARS-CoV Urbani (Rabbit serum linear peptides) / Binding of a rabbit serum to looped/cyclic peptides of protein N of SARS-CoV Urbani (Rabbit serum looped peptides): unit not given here
[2] = test system: control sera (pooled serum of ten healthy LUMC hospital workers; commercial negative donor pooled serum from the Dutch bloodbank); type: binding, human; set-up: Binding of Control serum LUMC to linear peptides / Binding of Control serum Blood-bank to linear peptides / Binding of Control serum LUMC to looped peptides / Binding of Control Serum Blood-Bank to Looped peptides / Binding of Control serum LUMC to linear peptides of the protein M of SARS-CoV Urbani / Binding of Control serum Blood-bank to linear peptides of the protein M of SARS-CoV Urbani / Binding of Control serum LUMC to looped peptides of the protein M of SARS-CoV Urbani / Binding of Control Serum Blood-Bank to Looped peptides of the protein M of SARS-CoV Urbani: unit not given here
[3] = test system: antibodies in sera from SARS patients (sera 1a, 1b, 2, 6, 37, 62, London, SARS-yellow, SARS-green); type: binding, human; set-up: Binding of serum 6 to linear peptides of protein X1 of SARS-CoV Urbani / Binding of serum 37 to linear peptides of protein X1 of SARS-CoV Urbani / Binding of serum 6 to looped/cyclic peptide (PEPSCAN-ELISA) / Binding of serum 37 to looped/cyclic peptide (PEPSCAN-ELISA) / Binding of serum 37 to looped/cyclic peptides of protein X1 of SARS-CoV Urbani / Binding of serum 6 to linear peptides of protein X2 / Binding of serum 37 to linear peptides of protein X2 / Binding of serum 37 to looped/cyclic peptides of protein X2 of SARS-CoV Urbani / Binding of serum 6 to linear peptides of protein M of SARS-CoV Urbani / Binding of serum 37 to linear peptides of protein M of SARS-CoV Urbani / Binding of serum 6 to looped/cyclic peptides of protein M of SARS-CoV Urbani / Binding of serum 37 to looped/cyclic peptides of protein M of SARS-CoV Urbani / Binding of serum 6 to linear peptides of protein X3 of SARS-CoV Urbani / Binding of serum 37 to linear peptides of protein X3 of SARS-CoV Urbani / Binding of serum 37 to looped/cyclic peptides of protein X3 of SARS-CoV Urbani / Binding of serum 6 to linear peptides of protein X4 of SARS-CoV Urbani / Binding of serum 37 to linear peptides of protein X4 of SARS-CoV Urbani / Binding of serum 37 to looped/cyclic peptides of protein X4 of SARS-CoV Urbani / Binding of serum 6 to linear peptides of protein X5 of SARS-CoV Urbani / Binding of serum 37 to linear peptides of protein X5 of SARS-CoV Urbani / Binding of serum 37 to looped/cyclic peptides of protein X5 of SARS-CoV Urbani / Binding of serum 6 to linear peptides of protein N of SARS-CoV Urbani / Binding of serum 37 to linear peptides of protein N of SARS-CoV Urbani / Binding of serum 6 to linear peptide (PEPSCAN-ELISA) / Binding of serum 1a to looped/cyclic peptides of protein N of SARS-CoV Urbani / Binding of serum 1b to looped/cyclic peptides of protein N of SARS-CoV Urbani / Binding of serum 2 to looped/cyclic peptides of protein N of SARS-CoV Urbani / Binding of serum 6 to looped/cyclic peptides of protein N of SARS-CoV Urbani / Binding of serum 37 to looped/cyclic peptides of protein N of SARS-CoV Urbani / Binding of serum 62 to looped/cyclic peptides of protein N of SARS-CoV Urbani / Binding of serum London to looped/cyclic peptides of protein N of SARS-CoV Urbani / Binding of serum SARS-green to looped/cyclic peptides of protein N of SARS-CoV Urbani: unit not given here
[4] = test system: recombinant human anti-SARS-CoV antibody 03-018; type: binding; set-up: Binding of antibody 03-018 to linear peptides of the N protein of SARS-CoV Urbani / Binding of antibody 03-018 to looped/cyclic peptides of the N protein of SARS-CoV Urbani: unit not given here

| Sequence | Binding of a rabbit serum to linear peptides of protein N of SARS-CoV Urbani (Rabbit serum linear peptides) [1] | Binding of a rabbit serum to looped/cyclic peptides of protein N of SARS-CoV Urbani (Rabbit serum looped peptides) [1] | Binding of Control Serum Blood-Bank to Looped peptides [2] | Binding of Control serum Blood-bank to linear peptides [2] | Binding of Control serum LUMC to linear peptides [2] | Binding of Control serum LUMC to looped peptides [2] | Binding of serum 1a to linear peptides of protein N of SARS-CoV Urbani [3] | Binding of serum 1a to looped/cyclic peptides of protein N of SARS-CoV Urbani [3] | Binding of serum 1b to linear peptides of protein N of SARS-CoV Urbani [3] | Binding of serum 1b to looped/cyclic peptides of protein N of SARS-CoV Urbani [3] | Binding of serum 2 to linear peptides of protein N of SARS-CoV Urbani [3] | Binding of serum 2 to looped/cyclic peptides of protein N of SARS-CoV Urbani [3] | Binding of serum 6 to looped/cyclic peptides of protein N of SARS-CoV Urbani [3] | Binding of serum 37 to looped/cyclic peptides of protein N of SARS-CoV Urbani [3] | Binding of serum 62 to looped/cyclic peptides of protein N of SARS-CoV Urbani [3] | Binding of serum London to looped/cyclic peptides of protein N of SARS-CoV Urbani [3] | Binding of serum SARS-green to looped/cyclic peptides of protein N of SARS-CoV Urbani [3] | Binding of serum SARS-yellow to looped/cyclic peptides of protein N of SARS-CoV Urbani [3] | Binding of antibody 03-018 to linear peptides of the N protein of SARS-CoV Urbani [4] | Binding of antibody 03-018 to looped/cyclic peptides of the N protein of SARS-CoV Urbani [4] | other results |
| --- | --- | --- | --- | --- | --- | --- | --- | --- | --- | --- | --- | --- | --- | --- | --- | --- | --- | --- | --- | --- | --- |
| MSDNGPQSNQRSAPR | 0.1 | 0.4 | 0.6 | 0.6 | 0.5 | 0.5 | 0.2 | 0.2 | 0.1 | 0.1 | 0.2 | 0.4 | 0.3 | 0.4 | 0.4 | 0.4 | 0.4 | 0.1 | 0.1 | 0.3 | Binding of serum 6 to linear peptides of protein N of SARS-CoV Urbani [3]: 0.2; Binding of serum 37 to linear peptides of protein N of SARS-CoV Urbani [3]: 0.6; Binding of serum 62 to linear peptides of protein N of SARS-CoV Urbani [3]: 0.6; Binding of serum London to linear peptides of protein N of SARS-CoV Urbani [3]: 0.5; Binding of serum SARS-green to linear peptides of protein N of SARS-CoV Urbani [3]: 0.3; Binding of serum SARS-yellow to linear peptides of protein N of SARS-CoV Urbani [3]: 0.5 |
| MSRIGMEVTPSGTWL | 0.2 | 0.5 | – | – | – | – | 0.3 | 0.4 | 0.1 | 0.3 | 0.2 | 0.5 | 0.3 | 0.6 | 0.7 | 0.5 | 0.7 | 0.5 | 0.1 | 0.2 | Control Serum Blood-Bank Looped peptides [2]: 0.7; Control serum Blood-bank linear peptides [2]: 0.8; Control serum LUMC linear peptides [2]: 0.7; Control serum LUMC looped peptides [2]: 0.7; Binding of serum 6 to linear peptides of protein N of SARS-CoV Urbani [3]: 0.2; Binding of serum 37 to linear peptides of protein N of SARS-CoV Urbani [3]: 0.6; Binding of serum 62 to linear peptides of protein N of SARS-CoV Urbani [3]: 0.7; Binding of serum London to linear peptides of protein N of SARS-CoV Urbani [3]: 0.5; Binding of serum SARS-green to linear peptides of protein N of SARS-CoV Urbani [3]: 0.3; Binding of serum SARS-yellow to linear peptides of protein N of SARS-CoV Urbani [3]: 0.6 |
| NFGDQDLIRQGTDYK | 0.1 | 0.1 | 0.5 | 0.8 | 0.7 | 0.4 | – | 0.2 | – | 0.1 | – | 0.2 | 0.1 | 0.4 | 0.3 | 0.3 | 0.2 | 0.1 | 0.1 | 0.2 | Binding of serum 1a to linear peptide (PEPSCAN-ELISA) [3]: 0.3; Binding of serum 1b to linear peptide (PEPSCAN-ELISA) [3]: 0.2; Binding of serum 2 to linear peptide (PEPSCAN-ELISA) [3]: 0.2; Binding of serum 6 to linear peptide (PEPSCAN-ELISA) [3]: 0.2; Binding of serum 37 to linear peptide (PEPSCAN-ELISA) [3]: 0.7; Binding of serum 62 to linear peptide (PEPSCAN-ELISA) [3]: 0.7; Binding of serum London to linear peptide (PEPSCAN-ELISA) [3]: 0.6; Binding of serum SARS-green to linear peptide (PEPSCAN-ELISA) [3]: 0.8; Binding of serum SARS-yellow to linear peptide (PEPSCAN-ELISA) [3]: 0.6 |
